Data set [1] relates to HCT8 enterocyte and HT29-MTX goblet cell lines. The data set is described as follows: Oris Cell Migration assay (epithelial cell wound healing). The data set is classed as cell-based, human. Particulars: 48 hours; SG-11 (SEQ ID NO:5 or SEQ ID NO:9) 1 μg/ml, EGF 30 ng/ml, staurosporine 100 nM; FIG. 2. From the text:
The 96 well Oris Cell Migration assay containing plugs preventing cell attachment in the center of each well was used according to the manufacturer's instructions (Platypus Technologies, Madison, Wis.). The migration assay plates were warmed to room temperature prior to use and plugs were removed from 100% confluence wells prior to cell addition. The HCT8 enterocyte and HT29-MTX goblet cell lines were used at a 9:1 ratio with a total of 5×10^4 total cells added per well (4.5×10^4 HCT8 cells and 0.5×10^4 HT29-MTX cells). Cells were incubated at 37° C.+5% CO2 for 24 hours. Plugs were then removed from all control and sample wells. Control wells included cells treated with the diluent vehicle as the blank, 30 ng/ml epidermal growth factor (EGF) as the positive control, and 100 nM staurosporine as the negative control, all diluted in cRPMI. Sample wells contained SG-11 protein (SEQ ID NO:9) at a concentration of 1 μg/ml diluted in cRPMI. 100% and 0% wells were cultured in cRPMI. […] The green fluorescent viability dye […] was added to all wells at a concentration of 0.5 μg/ml in PBS containing 0.9 mM CaCl2 and 0.5 mM MgCl2, incubated for 30 min at 37° C.+5% CO2, the dye was removed and cells were washed in PBS containing 0.9 mM CaCl2 and 0.5 mM MgCl2 and fluorescence was measured. […] Samples were normalized between 100% and 0% samples and values expressed as a percent growth.

Data set [2] concerns C57BL/6 mice given 2.5% DSS in drinking water. Description: Therapeutic DSS model of inflammatory bowel disease, treatment after 7 days DSS (Example 5, Example 13B). Format: in vivo, mouse. The method, then:
In this example, experiments were performed to study the effects of SG-11 in the DSS mouse model when the SG-11 protein is administered to the mice after DSS treatment for 7 days. This differs from the treatment regimen of Example 4 above in which mice were administered SG-11 protein shortly before treatment with DSS.
Eight-week-old male C57BL/6 mice were housed 5 animals per cage and given food and water ad libitum for seven days. Following a 7-day acclimation period, the mice were provided with drinking water containing 2.5% DSS for 7 days. Fresh 2.5% DSS water was prepared every 2 days during the 7 day DSS administration. For this therapeutic DSS study, SG-11 used to treat the animals was fused at its N-terminus to a FLAG Tag (DYKDDDDK; SEQ ID NO:32).
On day 7 normal drinking water was restored and i.p. treatments of 50 nmole/kg of SG-11 (1.3 mg/kg) or Gly2-GLP2 (0.2 mg/kg) were initiated. Treatments were administered twice a day (b.i.d.), with a morning and evening dose (every 8 and 16 hours) for six days.
Body weight was measured daily during the morning treatment. The colon tissue was then harvested and length was measured in centimeters and the tissue was weighed. Fecal material was flushed from the colon and residual PBS removed by gently running the colon tissue through a pair of forceps. The colon tissue was then weighed and colon weight to length ratio in mg/mm was determined. Following weight measurements proximal and distal colon tissue was banked for RNA and protein analysis and the remaining tissues was fixed in 10% neutral buffered formalin for histopathology. Statistical analysis was performed by a one-way ANOVA compared to DSS+vehicle for serum 4KDa-FITC translocation, serum LBP concentrations, colon length, and colon weight to length ratio, while a two-way ANOVA was performed for analysis of body weight. In all analysis, a Fisher's LSD test for multiple comparisons was used. Graphs represent data pooled from two experiments, and are plotted as mean±SEM.
Histopathology analysis was performed on proximal and distal colon tissues from the therapeutic DSS model described above. Proximal (FIG. 13A) and distal (FIG. 13B) colon scores (range 0-4) are presented and as well as the total score for the colon which represents the sum of proximal and distal colon scores (Range 0-8) (FIG. 13C). LMA=Loss of mucosal architecture, Edema=Edema, INF=Inflammation, TMI=Transmural inflammation, MH=Mucosal hyperplasia, DYS=Dysplasia. Graphs represent data pooled from two independent experiments, and are plotted as mean±SEM. Statistical analysis was performed by a one-way ANOVA compared to DSS+vehicle followed by a Fisher's LSD test for multiple comparisons.
In the second experiment (Example 13B), mice were provided with drinking water containing 2.5% DSS for 7 days. On day 7 normal drinking water was restored and i.p. treatments of 50 nmole/kg of SG-11 (SEQ ID NO:7) (1.3 mg/kg), SG-11V5 (SEQ ID NO:19) (1.3 mg/kg), or Gly2-GLP2 (0.2 mg/kg) were initiated. […]
At the end of each DSS model study, mice were fasted for 4 hours and then orally gavaged with 600 mg/kg 4KDa dextran labeled with fluorescein isothiocyanate (FITC) [4KDa-FITC]. One hour after the 4KDa-FITC gavage mice were euthanized, blood was collected and FITC signal was measured in serum. […]
Upon completion of the DSS models above, LBP levels were measured as an inflammation centric readout of barrier function following the protocol detailed in Example 5. […]

Data set [3] shares this test system. The data set is described as follows: Concurrent (prophylactic) DSS model of inflammatory bowel disease (Example 4, Example 13A). Format: in vivo, mouse. Particulars: 50 nmoles/kg i.p. b.i.d.
For data set [4] the following is noted: mouse, in vivo, ip.
Where [5] appears, read: Example 5, colon tissue, vs DSS+vehicle, FIG. 13.

As to `CN[C@@H]1C[C@H]2O[C@@](C)([C@@H]1OC)n1c3ccccc3c3c4c(c5c6ccccc6n2c5c31)C(=O)NC4` [staurosporine], in data set [1], the “Percent growth (epithelial cell wound healing, proliferation)” value is on record as “suppressing cell proliferation”.
For the compound “Gly2-GLP2: stable analog of glucagon-like peptide 2 (GLP2), positive control (HGDGSFSDEMNTILDNLAARDFINWLIQTKITD; Glucagon-like peptide 2; UniProt P01275 146-178, looked up, variant A2G) [reference compound]”, in data set [2] (Example 5, 50 nmole/kg i.p. b.i.d. for six days after 7 days DSS, FIG. 10), the LBP in serum result is on record as “no reduction in LBP”. In addition, in data set [2] (setting [5]), the “Histopathology: inflammation and transmural inflammation scores” value is “no change”; the “Histopathology: loss of mucosal architecture score” value is on record as “modest, but significant, reduction”. Besides, the “Colon weight to length ratio” value in data set [2] (Example 13B, 50 nmole/kg, vs DSS+vehicle, p<0.01, FIG. 23B) is recorded as “did not”. Further, the “4KDa-FITC intestinal permeability readout and serum LBP” value in data set [2] (treatment after 7 days DSS, 50 nmole/kg i.p. b.i.d. for six days, FLAG-tagged SG-11) is recorded as “no significant effects”. Also, the Colon length entry in data set [3] (FIG. 8A) was “significant improvement in colon length”. For the same compound, in data set [3] (FIG. 8B), the “Colon weight to length ratio” value is reported as “significant improvement in colon weight to length ratios”.
As for “epidermal growth factor [EGF, positive control in the wound healing assay]”, the “Percent growth (epithelial cell wound healing, proliferation)” value in data set [1] is reported as “increasing proliferation”.
“fluorescently labeled bovine serum albumin: tracer protein used in preliminary tracking studies after i.p. injection”: the “Time at which protein reached the colon after i.p. delivery” value in data set [4] worked out at 6 h.

Values taken from patent US11505583B2, “Proteins for the treatment of epithelial barrier function disorders” (Second Genome, Inc., priority 2018, dated 2022).
